# Assay results taken from US11325883B2, “Functionalized N,N-dialkylamino phenyl ethers and their method of use” (Temple University—Of The Commonwealth System of Higher …, priority 2017, dated 2022).
# What was measured:
# [1] = system: Gaucher patient fibroblasts (L444P/L444P, GM08760); experiment: GPN induced calcium release phenotypic assay on Gaucher patient cells; assay type: cell-based, human; conditions: for Maximal % Change in GPN Response / EC50: Gaucher patient cells, 72 hours compound treatment; for Maximal % Change in GPN Response: GPN response with drug/without drug x100; for EC50: Homo sapiens, Fibroblast, 12-point curve in triplicate
# Source text: Phenotypic Assay: A phenotypic cellular assay utilizing lysosomal storage disorder (LSD) patient derived cells was developed to identify compounds with disease modifying activity to reverse or attenuate the disease phenotype to non-disease levels. […] This functional readout of the LSD diseased state was developed into a high throughput screening assay.
# Disruption of lysosomal calcium homeostasis has been linked to the pathophysiology of lysosomal storage disorders including Gaucher disease (Lloyd-Evans, E, Morgan A J, He X, Smith D A, Elliot-Smith E, Sillence D J, Churchill G C, Schuchman E H, Galione A, Platt F M. (2008) Niemann-Pick disease type C1 is a sphingosine storage disease that causes deregulation of lysosomal calcium. Nat Med. 14(11):1247-55. Lloyd-Evans E, Platt F M. (2011) Lysosomal Ca(^2+) homeostasis: role in pathogenesis of lysosomal storage diseases. Cell Calcium. 50(2):200-205. Morgan, A J, Platt, F M, Lloyd-Evans, E and Galione, A (2011) Molecular mechanism of endolysosomal Ca^2+ signaling in health and disease. Biochem. J. 439:349-374.). Calcium release from acidic lysosomal stores can be induced by addition of Gly-Phe-β-napthylamide (GPN), a substrate of cathepsin C, which upon hydrolysis, produces osmotic lysis of lysosomes and release of calcium specifically from lysosomal acidic stores into the cytosol. The increase of intracellular calcium released from lysosomes can be detected with cell membrane permeable calcium sensitive indicators.
# (§1) Cells (800 cells/well) were plated with a MultiFlo dispenser (BioTek) and cultured for 24 h at 37° C., 5% CO2. The screening compounds were then added to cells under sterile conditions and continued in culture for 72 hours. Cells were loaded with Screen Quest™ Fluo-8 No Wash Calcium mix (ATT Bio) and analyzed for changes in response to GPN. The data from each well were normalized with basal fluorescence by dividing the maximum fluorescence over the entire real time reading by the initial basal fluorescence. […] EC50 and Hill slope values are determined using a four-parameter dose-response (variable slope) equation in GraphPad Prism. The % change in GPN response is calculated as the ratio of GPN response measured in the presence of drug/GPN response measured in the absence of drug×100. […] The maximal % change in GPN response is calculated as the ratio of GPN response measured in the presence of drug/GPN response measured in the absence of drug×100.
# Gaucher patient fibroblasts (Coreill Institute, GM08760) were cultured in EMEM with 15% FBS, 1% Pen/Strep at 37° C./5% CO2. Wild-type patient fibroblasts (Coriell Institute, GM 005659) were used as a control cell line. Cells are plated with a MultiFlo dispenser (800 cells/well in 30 μL of complete growth media) in black/clear bottom 384-well plates and cultured for 24 hours at 37° C., 5% CO2. Compounds of the disclosure are then added to the cells (12 point dose response curve, 150 nM to 30 uM final compound concentration using a 5.0 μL of a 7× stock solution (1.05 μM to 210 μM)) under sterile conditions and continued in culture for 72 hours at 37° C., 5% CO2. For intracellular calcium measurements, media is removed and 20 μL of calcium dye mixture (Screen Quest™ Fluo-8 No Wash Calcium mix, ATT Bioquest) is added to each well, incubated for 30 minutes at 37° C., followed by 22° C. for 30 minutes.
# [2] = system: Wild-type patient fibroblasts (GM 005659); conditions: wild type cells
# Experimental: as §1
# Gaucher patient fibroblasts (Coreill Institute, GM08760) were cultured in EMEM with 15% FBS, 1% Pen/Strep at 37° C./5% CO2. Wild-type patient fibroblasts (Coriell Institute, GM 005659) were used as a control cell line. […] The data from each well were normalized with basal fluorescence by dividing the maximum fluorescence over the entire real time reading by the initial basal fluorescence.
SMILES,Maximal % Change in GPN Response [1] [%],EC50 [1] [nM],increase in GPN-induced calcium response [2],increase in calcium response ([1]; compared with 0.1% DMSO treated Gaucher patient cells) [%]
"CCC(C(=O)c1ccc(OCCN(C)C)cc1)c1ccccc1-c1ccc(F)cc1 (centres unmarked) [Example 5, 1-(4-(2-(dimethylamino)ethoxy)phenyl)-2-(4′-fluoro-[1,1′-biphenyl]-2-yl)butan-1-one]",630,266,,
"CNCCOc1ccc(C(=O)C(CC(C)C)c2ccccc2-c2ccc(F)cc2)cc1 (centres unmarked) [Example 9, 2-(4′-fluoro-[1,1′-biphenyl]-2-yl)-4-methyl-1-(4-(2-(methylamino)-ethoxy)phenyl)pentan-1-one]",617,236,,
"CN(C)CCOc1ccc(C(=O)C(CC2CC2)c2ccccc2-c2ccc(F)cc2)cc1 (centres unmarked) [Example 4, 3-cyclopropyl-1-(4-(2-(dimethylamino)ethoxy)phenyl)-2-(4′-fluoro-[1,1′-biphenyl]-2-yl)propan-1-one]",360,475,,
"CN(C)CCOc1ccc(C(=O)Cc2ccccc2-c2ccc(F)cc2)cc1 [Example 1, 1-(4-(2-(Dimethylamino)ethoxy)phenyl)-2-(4′-fluoro-[1,1′-biphenyl]-2-yl)ethanone]",250,3600,,
"CCC(C(=O)c1ccc(OCCNC)cc1)c1ccccc1-c1ccc(F)cc1 (centres unmarked) [Example 7, 2-(4′-fluoro-[1,1′-biphenyl]-2-yl)-1-(4-(2-(methylamino)ethoxy)phenyl)butan-1-one]",515,425,,
"CN(C)CCOc1ccc(C(=O)Cc2ccccc2-c2ccccc2Cl)cc1 [Example 2, 2-(2′-Chloro-[1,1′-biphenyl]-2-yl)-1-(4-(2-(dimethylamino)ethoxy)phenyl)ethanone]",160,1800,,
"CCCC(C(=O)c1ccc(OCCN(C)C)cc1)c1ccccc1-c1ccc(F)cc1 (centres unmarked) [Example 6, 1-(4-(2-(dimethylamino)ethoxy)phenyl)-2-(4′-fluoro-[1,1′-biphenyl]-2-yl)pentan-1-one]",410,424,,
"CCCC(C(=O)c1ccc(OCCNC)cc1)c1ccccc1-c1ccc(F)cc1 (centres unmarked) [Example 8, 2-(4′-fluoro-[1,1′-biphenyl]-2-yl)-1-(4-(2-(methylamino)ethoxy)phenyl)pentan-1-one]",330,356,,
"CC(C)CC(C(=O)c1ccc(OCCN(C)C)cc1)c1ccccc1-c1ccc(F)cc1 (centres unmarked) [Example 3, 1-(4-(2-(dimethylamino)ethoxy)phenyl)-2-(4′-fluoro-[1,1′-biphenyl]-2-yl)-4-methylpentan-1-one]",400,185,,
"CC/C(=C(\c1ccccc1)c1ccc(OCCN(C)C)cc1)c1ccccc1 [Tamoxifen, reference compound]",,,30+/−20%,200±50
